{"source": "patent US20100234358A1", "about": "“NERAMEXANE FOR THE TREATMENT OF NYSTAGMUS” (MERZ PHARMA GMBH & CO. KGAA, priority 2007, published 2010)", "key": {"[1]": {"system": "congenital idiopathic and acquired nystagmus", "details": "human, in vivo; cited from earlier work"}, "[2]": {"system": "acquired pendular nystagmus due to multiple sclerosis", "details": "in vivo; cited from earlier work"}, "[3]": {"system": "congenital, idiopathic nystagmus (subgroup: acquired nystagmus in MS patients)", "assay": "Double blind placebo controlled pilot trial of neramexane for treatment of nystagmus", "type": "in vivo, human", "details": "as compared to the placebo group, Neramexane mesylate up to 75 mg/d, 7 weeks", "protocol": "The objective of this pilot project is to conduct a clinical trial to assess the efficacy of neramexane as a treatment for nystagmus.\nThe primary objective of this study is to investigate the safety and efficacy of Neramexane mesylate at daily doses of up to 75 mg in the treatment of congenital, idiopathic nystagmus in comparison to placebo. In addition, a subgroup of up to 20 MS patients suffering from acquired nystagmus are included and analyzed in an exploratory manner. In both patient groups, effects of treatment is assessed in comparison with placebo using a two-period cross-over design (two treatment periods of 7 weeks each, separated by a wash-out phase.\nThe study is designed as a randomized, double-blind placebo-controlled, pilot study using a two-period cross-over design. Suitable patients are randomly assigned to one of the two treatment sequences of the cross-over trial (sequence A-B or B-A), i.e. double-blind treatment with Neramexane (A) and matching placebo tablets (B).\nPatients with congenital nystagmus (no pathology other than nystagmus; primary analysis population) or acquired nystagmus subsequent to MS (exploratory analysis only) • male or female outpatients aged between 18 and 80 years (inclusive) at screening; • patients with a metric visual acuity (VA) of 6/9 or lower 6/9); • for females of childbearing potential (last menses less than one year prior to enrollment): negative pregnancy test at baseline; either surgically sterile or use of a medically accepted method of contraception during the entire duration of the study; • congenital idiopathic nystagmus patients: uneventful gross neurological examination; • MS patients: diagnosis ‘multiple sclerosis’ as confirmed on the basis of McDonald criteria; • normal results of electroretinography (ERG) and visually evoked potential (VEP) testing; historical results may be accepted (period of acceptability to be defined) • patients having given written informed consent; • patient expected and willing to comply with the scheduled visits, dosing scheme (in particular placebo), and other requirements of the study; • results of normal physical examination, electrocardiogram (ECG), and safety laboratory at screening, or abnormal findings which are judged not clinically significant by the investigator; • Refraction prior to enrolment and, if required, prescription and receipt of new glasses or contact lenses prior to baseline visual acuity measurement\nNeramexane mesylate 25 mg modified release tablets and matching placebo tablets are administered as film coated tablets. […]\nVisual acuity (VA) is the standard by which the outcomes of drug therapy in nystagmus are measured in the framework of clinical trials. […]"}, "[4]": {"system": "N-methyl-D-aspartate (NMDA) receptors", "details": "cited from earlier work"}}}
{"compound": "CC12CC3CC(C)(C1)CC(N)(C3)C2", "note": "[memantine]", "values": [{"measurement": "effectiveness in the treatment of congenital idiopathic and acquired nystagmus", "setting": "[1]", "result": "may be effective"}, {"measurement": "activity in acquired pendular nystagmus due to multiple sclerosis", "setting": "[2]", "result": "demonstrated activity"}]}
{"compound": "CC1(C)CC(C)(C)CC(C)(N)C1", "note": "[neramexane, 1-amino-1,3,3,5,5-pentamethylcyclohexane]", "values": [{"measurement": "secondary outcome: expanded nystagmus acuity function", "setting": "[3]", "result": "improvement"}, {"measurement": "secondary outcome: nystagmus intensity", "setting": "[3]", "result": "improvement"}, {"measurement": "secondary outcome: reading ability", "setting": "[3]", "result": "improvement"}, {"measurement": "primary outcomes, such as visual acuity", "setting": "[3]; two-period cross-over", "result": "improvement"}, {"measurement": "NMDA-receptor affinity / mode of antagonism", "setting": "[4]", "result": "low to moderate-affinity, non-competitive NMDA-receptor antagonist"}]}
